In assay [1] the target is Plasminogen (Homo sapiens) (UniProt P00747). In words: Inhibition of plasmin.
Assay [2] can be described thus: Inhibition of trypsin.

SMILES strings stand for the structures. Active and inactive are the calls of the source. The rule behind the calls is not given here.

We go through one compound from ChEMBL document CHEMBL1150848, “Radiosumin B, an unusual dipeptide from the cyanobacterium Microcystis aeruginosa” (J Nat Prod, 2001).

Chain of Plasminogen (Homo sapiens) (P00747 97-580 limits assumed): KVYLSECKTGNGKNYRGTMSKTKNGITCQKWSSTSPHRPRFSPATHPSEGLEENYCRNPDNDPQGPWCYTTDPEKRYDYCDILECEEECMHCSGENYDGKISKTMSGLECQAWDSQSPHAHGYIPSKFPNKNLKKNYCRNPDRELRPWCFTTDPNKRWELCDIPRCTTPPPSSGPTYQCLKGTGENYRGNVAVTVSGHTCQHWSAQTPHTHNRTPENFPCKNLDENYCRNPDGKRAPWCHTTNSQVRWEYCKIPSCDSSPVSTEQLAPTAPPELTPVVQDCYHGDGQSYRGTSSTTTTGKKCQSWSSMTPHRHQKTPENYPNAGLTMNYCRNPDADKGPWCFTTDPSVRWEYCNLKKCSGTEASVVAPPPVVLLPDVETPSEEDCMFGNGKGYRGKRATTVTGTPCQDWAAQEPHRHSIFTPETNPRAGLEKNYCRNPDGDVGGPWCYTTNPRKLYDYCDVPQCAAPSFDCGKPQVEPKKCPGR
Chain of Plasminogen (Homo sapiens) (P00747 581-810 limits assumed): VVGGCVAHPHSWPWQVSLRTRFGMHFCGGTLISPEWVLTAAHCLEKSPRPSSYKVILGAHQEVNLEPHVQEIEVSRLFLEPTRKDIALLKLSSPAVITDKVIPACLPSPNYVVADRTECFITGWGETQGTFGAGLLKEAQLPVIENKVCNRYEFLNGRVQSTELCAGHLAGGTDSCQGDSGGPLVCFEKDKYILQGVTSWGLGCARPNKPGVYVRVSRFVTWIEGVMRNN

Turning to `CN[C@H]1C=C/C(=C/[C@H](NC(C)=O)C(=O)N[C@@H](/C=C2/C=C[C@H](NC(C)=O)CC2)C(=O)O)CC1`, the outcome in assay [1] and in assay [2] was Active.
